Assay results: PMC12164071, “Lysine targeting covalent inhibitors of malarial kinase PfCLK3” (RSC Medicinal Chemistry, 2025)
“Also recorded” adds a separate entry of the source. Read-outs that look alike come from different tables or passages of the source.

What was measured:
[1] = test system: 3D7 Plasmodium falciparum parasites; test: Ex vivo P. falciparum (3D7) inhibition assay; format: cell-based
Procedure: Compounds 4, 5, 8 and 9 were then assessed against 3D7 Plasmodium falciparum parasites (Fig. 6). […]
P. falciparum (3D7) culture and synchronisation.
P. falciparum cultures were maintained in RPMI-1640 media (Invitrogen) supplemented with 0.2% sodium bicarbonate, 0.5% Albumax II, 2.0 mM L-glutamine (Sigma) and 10 mg/L gentamycin. For continuous culture, the parasites were maintained at 4% haematocrit in human erythrocytes from 0+ blood donors and between 0.5 - 3% parasitaemia in an incubator at 37 °C, 5% carbon dioxide (CO 2), 5% oxygen (O 2) and 90% nitrogen (N 2). To obtain highly synchronous ring stage parasites for assays, cultures were double synchronised using Percoll and Sorbitol synchronisation. First, highly segmented schizonts were enriched by centrifugation on a 70% Percoll (GE Healthcare) cushion gradient. The Schizont pellet was collected and washed twice before fresh erythrocytes were added to a final haematocrit of 4%, and incubated for about 1-2 hours shaking continuously to allow merozoites egress and re-invasion of new erythrocytes. Residual schizonts were then removed by a second Percoll purification followed by treating the ring pellet with sorbitol to generate highly synchronous 1-2 hours old ring-stage parasites.
Ex vivo P. Falciparum (3D7) inhibition assay.
To determine the IC 50 of the molecules in parasites (P. falciparum 3D7) ex vivo, the molecules were diluted 1 in 3 from a starting concentration of 100 μM for 12 dilution points in triplicate. 50 μL of freshly diluted drugs, at twice the required final concentrations were aliquoted into black 96-well plates. To the compound plates, 50 μL of parasites prepared at 8% haematocrit at a parasitaemia (0.3 - 0.5%) were added and mixed by pipetting up and down several times giving a final culture volume of 100 μL at the required compound concentration (top concentration of 100 μM) and 4% haematocrit. To the ‘no compound’ control, growth media was added and uninfected erythrocytes were included on the plate as blank. The outer wells were filled with media to reduce evaporation from the experimental wells and the plates incubated for 72 hours (±2 hours) to allow the parasites sufficient time to re-invade before they are collected and frozen. For cellular washout studies, compound media was exchanged for compound-free media after 6 hours, and the parasites incubated for a […]

recombinant PfCLK3 = recombinant PfCLK3 (Plasmodium falciparum, UniProt Q8IIL5); test: TR-FRET kinase assay at Km ATP; format: biochemical; details: for IC50: 2 hour incubation, errors SD, N ≥ 3, * concentration response curve not complete; for kinase activity in words: Km ATP
Chain of recombinant PfCLK3 (Q8IIL5 entry or part of it): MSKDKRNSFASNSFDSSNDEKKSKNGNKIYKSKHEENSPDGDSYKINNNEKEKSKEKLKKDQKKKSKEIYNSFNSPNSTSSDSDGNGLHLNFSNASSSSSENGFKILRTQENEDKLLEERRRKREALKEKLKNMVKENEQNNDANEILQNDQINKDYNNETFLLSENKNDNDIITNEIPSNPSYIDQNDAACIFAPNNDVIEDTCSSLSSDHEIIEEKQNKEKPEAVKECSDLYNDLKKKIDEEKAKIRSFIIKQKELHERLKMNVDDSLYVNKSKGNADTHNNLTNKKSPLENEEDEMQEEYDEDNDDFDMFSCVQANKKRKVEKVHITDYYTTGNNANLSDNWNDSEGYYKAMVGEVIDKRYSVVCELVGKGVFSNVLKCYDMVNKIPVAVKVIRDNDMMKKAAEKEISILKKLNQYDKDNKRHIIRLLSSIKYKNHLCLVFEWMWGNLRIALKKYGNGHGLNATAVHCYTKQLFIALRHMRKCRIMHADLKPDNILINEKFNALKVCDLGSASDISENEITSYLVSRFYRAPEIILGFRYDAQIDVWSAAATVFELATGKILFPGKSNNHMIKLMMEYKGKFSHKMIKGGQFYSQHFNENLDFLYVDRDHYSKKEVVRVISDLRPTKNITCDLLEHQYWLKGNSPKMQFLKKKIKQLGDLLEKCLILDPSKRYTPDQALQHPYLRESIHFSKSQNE
Procedure: All compounds were then evaluated against recombinant PfCLK3 using a TR-FRET kinase assay (Fig. 5). […]
Time Resolved Förster Resonance Energy Transfer (TR-FRET) Assay
Tr-FRET technology was used to determine kinase activity and Km ATP before profiling compounds. An 11-point half-log serial dilution of each test compound was prepared in 100% DMSO at 100X final test concentration. The dilution series were dispensed onto assay plates with liquid handling machinery using positive displacement. The final DMSO concentration in the assay was 1%. To obtain IC 50 values, full length recombinant PfCLK3 was prepared in 1X assay buffer (50 mM Hepes, 10 mM MgCl2, 1 mM EGTA, 0.01% Tween20, 2 mM TCEP) at a 2X concentration and incubated with compounds for 15 minutes at room temperature before addition of ULight-labelled peptide substrate (MBP) with Km ATP (at 2X concentration). The reaction was centrifuged and incubated for 2 hr at 37 °C. To stop the reaction, 1X Lance detection buffer was added with 1 nM Eu-labelled anti-MBP and 10 mM EDTA, and the reaction was incubated in the dark for 2 hr at room temperature to allow detection to take place. Plate output was read on a Pherastar FSX and data analysed in Graphpad Prism to a 4-parameter curve fit. […]

human (h)CLK2 = human (h)CLK2 (Homo sapiens, UniProt P49760); test: Selectivity kinase assay against hCLK2; format: biochemical; details: for IC50: errors SD, N ≥ 3
Chain of human (h)CLK2 (P49760 whole entry): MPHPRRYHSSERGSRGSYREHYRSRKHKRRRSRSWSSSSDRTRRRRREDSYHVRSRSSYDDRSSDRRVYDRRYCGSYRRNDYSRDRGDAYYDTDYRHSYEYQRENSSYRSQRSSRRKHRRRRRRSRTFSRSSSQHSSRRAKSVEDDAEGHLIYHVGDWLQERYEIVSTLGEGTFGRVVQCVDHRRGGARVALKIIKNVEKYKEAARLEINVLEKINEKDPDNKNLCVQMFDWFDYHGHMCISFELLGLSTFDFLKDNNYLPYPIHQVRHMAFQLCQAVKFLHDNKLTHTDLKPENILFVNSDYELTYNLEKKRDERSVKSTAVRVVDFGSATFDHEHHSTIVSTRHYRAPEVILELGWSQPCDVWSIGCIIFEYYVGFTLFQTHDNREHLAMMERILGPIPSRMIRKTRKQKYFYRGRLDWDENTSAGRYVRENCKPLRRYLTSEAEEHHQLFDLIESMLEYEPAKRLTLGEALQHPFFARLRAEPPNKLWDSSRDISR
Description: Given this work aims to target a conserved residue, selectivity must be derived from the reversible ligand rather than the covalent interaction.

[2] = Human cell viability assay (resazurin); details: HepG2, 48 hours, errors SD, N ≥ 3
Procedure: Cytotoxicity was assessed in HepG2 cells to complement the selectivity evaluations (Fig. 7). […]
Human cell viability assay.
Mycoplasma tested HepG2 cells were cultured in Dulbecco’s Modified Eagle Medium
(DMEM) with 10% fetal bovine serum, 1% non-essential AA, 1% sodium pyruvate, 1% Pen-
strep and 100ug/mL Normocin. Cultures were incubated at 37 ℃, 5% CO2. Cells were
detached using 0.05% trypsin-EDTA. 500nL of drug compound dilutions, in triplicate, were
added to 384-well, black, clear bottom assay plates using a Mosquito liquid handling
machine. Assay plates, containing compound dilutions, were seeded at 5,000 cells/well and
incubated for 48 hours. 40uM final concentration resazurin, diluted in DPBS, was added to
the assay plates which were then incubated for 4 hours and analysed using a ClariostarTM
plate reader to measure fluorescence Intensity (545-20nm/600-40nm). 3 control compounds
were included on every assay plate, Tamoxifen, Puromycin and TCMDC-135051. Maximum
signal control was obtained from wells with DMSO only and minimum signal control with
Tamoxifen 100uM. These were used to normalise data and give percentage inhibition of
metabolic activity. Experiments were performed N=3 and normalised data was grouped and a
nonlinear regression curve with four parameters was plotted using GraphPad Prism,
generating activity data. […]

[3] = test system: PfCLK3 kinase domain (amino acid residues 334–699); test: Intact protein LC-MS for covalent adduct formation; format: binding, Plasmodium falciparum; details: for Relative Ratio, assignment apo / Relative Ratio, assignment holo (singly modified): compound 4 with C-terminal His-tag construct; for covalent adduct formation with PfCLK3 kinase domain: pH 7.4, 1:5 protein to compound ratio
Procedure: All compounds were then evaluated for covalent binding with PfCLK3 kinase domain (amino acid residues 334–699) using intact protein LC-MS (Fig. 3). Compounds were incubated at pH 7.4 in a 1 : 5 protein to compound ratio and analysed for covalent adduct formation using ESI TOF. […] Compounds 8 and 9 yielded a fully modified species at 43 957 Da, which can be attributed to the mass of the apo protein + the mass of the pyridinium product adduct. A minor mass (20–25%) of 44 378 Da was also detected, consistent with a doubly modified PfCLK3 kinase domain. This implies that cross reactivity with non-catalytic lysine residues is possible using the ethynyl benzaldehyde functionality, although a minor product. […]
dialyzing the protein into a final buffer containing 20 mM HEPES pH 7.4, 150 mM NaCl, 1 […]
PfCLK3 kinase domain (residues 334–699 with a C-terminal TEV cleavage sequence and His6-tag) was cloned into pFastBac vector and expressed and purified from Sf21 insect cells.
Cells were infected using P2 BIICs at an MOI of 0.2 and left to express for 72 h. Harvested cells were lysed and centrifuged before purifying using IMAC and SEC in a final buffer containing 20 mM HEPES pH 7.4, 150 mM NaCl, 1 mM TCEP, and 1 mM MgCl2.
Protein Mass Spectrometry
For intact protein mass spectrometry, compounds were incubated with a 5-fold excess of compound in buffer containing 20 mM HEPES pH 7.4, 150 mM NaCl, 1 mM TCEP, and 1 mM MgCl 2. 5 μL of kinase domain (1 mg/mL) was added to 25 μL of buffer before 0.12 μL of compound in a 10 mM DMSO stock was added to start the incubation. Samples were incubated at room temperature for 4 hours before 10 μL alliquots were analysed by LC-MS.
Intact protein LC-MS experiments were performed on a Synapt G2 Q-ToF instrument equipped with electrospray ionisation (Waters Corp., Manchester, UK). LC separation was achieved using an Acquity UPLC equipped with a reverse phase C4 Aeris Widepore 50 × 2.1 mm HPLC column (Phenomenex, CA, USA) and a gradient of 5–95% acetonitrile (0.1% formic acid) over 10 minutes was employed. Data analysis was performed using MassLynx v4.1 and deconvolution was performed using MaxEnt. […]

[4] = pH 7.4, 1:5 protein to compound, 4 hours room temperature
[5] = 3D7, Pf3D7 parasites, 72 hours, errors SD, N ≥ 3, read-out: EC50 (3D7)
[6] = 3D7, Pf3D7 parasites, 72 hours, errors SD, N ≥ 3, read-out: pEC50 (3D7) (converted)

SMILES	IC50 (recombinant PfCLK3; IC50 (apparent), Km ATP (5 μM)) [nM]	IC50 (recombinant PfCLK3; pIC50, Km ATP (5 μM)) [nM]	CC50 at 48 h ([2]; CC50 (HepG2)) [µM]	CC50 at 48 h ([2]; pCC50 (HepG2)) [µM]	Relative Ratio, assignment apo [3, 4]	covalent adduct formation with PfCLK3 kinase domain [3]	also measured
CCN(CC)Cc1ccc(OC)c(-c2cc3c(-c4ccc(C(=O)O)c(C(C)C)c4)ccnc3[nH]2)c1 [Compound 1, TCMDC-135051, reference compound]	17 ± 3	17.4	2.75 ± 0.58	2.75	–	–	EC50 ([1]; 3D7, 72 h, read-out: EC50 (3D7)): 266 ± 11 nM; EC50 ([1]; 3D7, 72 h, read-out: pEC50 (3D7) (converted)): 263 nM; IC50 (human (h)CLK2; IC50 (hCLK2)): 879 ± 325 nM; IC50 (human (h)CLK2; pIC50 (hCLK2)): 891 nM
CCN(CC)Cc1ccc(OC)c(-c2cc3c(-c4ccc(S(=O)(=O)F)cc4)ccnc3[nH]2)c1 [Compound 2]	83 ± 10	83.2	–	–	100	–	–
CCN(CC)Cc1ccc(OC)c(-c2cnc3[nH]cc(-c4ccc(S(=O)(=O)F)cc4)c3c2)c1 [Compound 3]	302 ± 33	302	–	–	100	–	–
CCN(CC)Cc1ccc(OC)c(-c2cnc3[nH]cc(-c4ccc(O)c(C=O)c4)c3c2)c1 [Compound 5]	19 ± 10	19.5	4.74 ± 3.18	2.69	68	showed covalent adduct formation; also recorded: formed a covalent adduct with PfCLK3	EC50 [1, 5]: 3260 ± 1670 nM; EC50 [1, 6]: 3240 nM; IC50 (human (h)CLK2; read-out: pIC50 (hCLK2) (converted)): 11 nM; fold more potent against hCLK2 than parent S1 (human (h)CLK2; relative to S1): 20 fold; partial covalent bond formation, modification ([3]; imine adduct): 32–60%; Relative Ratio, assignment holo (singly modified) [3, 4]: 32
CCN(CC)Cc1ccc(OC)c(-c2cc3c(-c4ccc(C=O)c(O)c4)ccnc3[nH]2)c1 [Compound 6]	155 ± 19	155	–	–	100	unable to covalently bind the protein	–
CCN(CC)Cc1ccc(OC)c(-c2cnc3[nH]cc(-c4ccc(C=O)c(O)c4)c3c2)c1 [Compound 7]	83 ± 42	83.2	–	–	100	unable to covalently bind the protein	–
C#Cc1ccc(-c2ccnc3[nH]c(-c4cc(CN(CC)CC)ccc4OC)cc23)cc1C=O [Compound 8]	29 ± 3	28.8	12.3 ± 2.53	12.3	–	showed covalent adduct formation; also recorded: formed a covalent adduct with PfCLK3	EC50 [1, 5]: 2270 ± 2890 nM; EC50 [1, 6]: 2290 nM; IC50 (human (h)CLK2; read-out: IC50 (hCLK2)): 69 ± 31 nM; doubly modified PfCLK3 kinase domain, minor mass abundance ([3]; 44 378 Da species): 20–25%; Relative Ratio, assignment holo (doubly modified) [3, 4]: 25; Relative Ratio, assignment holo (singly modified) [3, 4]: 75
C=CS(=O)(=O)Nc1ccc(-c2c[nH]c3ncc(-c4cc(CN(CC)CC)ccc4OC)cc23)cc1 [Compound 11]	892	891	–	–	–	–	kinase activity in words (recombinant PfCLK3): poorly active, not reaching 100% inhibition at the highest concentration tested
C=CC(=O)Nc1ccc(-c2ccnc3[nH]c(-c4cc(CN(CC)CC)ccc4OC)cc23)cc1 [Compound 12]	–	–	–	–	100	–	–
C=CC(=O)Nc1ccc(-c2c[nH]c3ncc(-c4cc(CN(CC)CC)ccc4OC)cc23)cc1 [Compound 13]	1950	2000	–	–	100	–	kinase activity in words (recombinant PfCLK3): significantly lower activity than all other analogues
